Experimental data published in ChEMBL document CHEMBL3351769, “Poly-guanidinoethylphenylethers organised around a benzene ring: synthesis and evaluation of their antibacterial and cytotoxic properties” (Bioorg Med Chem Lett, 2014).

Experiments:
[1] = system: Escherichia coli; assay: Antimicrobial activity against Escherichia coli ATCC 25922 by broth microdilution method; format: functional
[2] = system: Pseudomonas aeruginosa; assay: Antimicrobial activity against Pseudomonas aeruginosa ATCC 27853 by broth microdilution method; format: functional
[3] = system: Staphylococcus aureus; assay: Antimicrobial activity against Staphylococcus aureus ATCC 25923 by broth microdilution method; format: functional
[4] = system: Staphylococcus aureus; assay: Antimicrobial activity against Staphylococcus aureus ATCC 29213 by broth microdilution method; format: functional
[5] = system: Enterococcus faecalis; assay: Antimicrobial activity against Enterococcus faecalis ATCC 29212 by broth microdilution method; format: functional
[6] = system: MRC5; assay: Cytotoxicity against human MRC5 cells after 24 hrs by MTT assay; format: cell-based; settings: MRC5, 24 h
[7] = system: MRC5; assay: Cytotoxicity against human MRC5 cells after 48 hrs by MTT assay; format: cell-based; settings: MRC5, 48 h
[8] = Selectivity index, ratio of IC50 for human MRC5 cells after 24 hrs to MIC for Escherichia coli ATCC 25922; format: toxicity, cell-based; settings: read-out: Selectivity Index
[9] = Selectivity index, ratio of IC50 for human MRC5 cells after 24 hrs to MIC for Pseudomonas aeruginosa ATCC 27853; format: toxicity, cell-based; settings: read-out: Selectivity Index
[10] = Selectivity index, ratio of IC50 for human MRC5 cells after 24 hrs to MIC for Staphylococcus aureus ATCC 25923; format: toxicity, cell-based; settings: read-out: Selectivity Index
[11] = Selectivity index, ratio of IC50 for human MRC5 cells after 24 hrs to MIC for Staphylococcus aureus ATCC 29213; format: toxicity, cell-based; settings: read-out: Selectivity Index
[12] = Selectivity index, ratio of IC50 for human MRC5 cells after 24 hrs to MIC for Enterococcus faecalis ATCC 29212; format: toxicity, cell-based; settings: read-out: Selectivity Index

SMILES | MIC [1] | MIC [2] | MIC [3] | MIC [4] | MIC [5] | IC50 [6] | IC50 [7] | selectivity ratio at 24 h [8] | selectivity ratio at 24 h [9] | selectivity ratio at 24 h [10] | selectivity ratio at 24 h [11] | selectivity ratio at 24 h [12]
N=C(N)NCCc1ccc(OCc2ccccc2COc2ccc(CCNC(=N)N)cc2)cc1.O=C(O)C(F)(F)F | 8 µg/mL | 16 µg/mL | < 1 µg/mL | < 1 µg/mL | 8 µg/mL | 100 µg/mL | 41 µg/mL | 12.5 | 6.2 | > 100 | > 100 | 12.5
N=C(N)NCCc1ccc(OCc2cccc(COc3ccc(CCNC(=N)N)cc3)c2)cc1.O=C(O)C(F)(F)F | 16 µg/mL | 32 µg/mL | < 1 µg/mL | 2 µg/mL | 16 µg/mL | 34.5 µg/mL | 29.7 µg/mL | 2 | 1 | > 34.5 | 17 | 2
N=C(N)NCCc1ccc(OCc2c(COc3ccc(CCNC(=N)N)cc3)c(COc3ccc(CCNC(=N)N)cc3)c(COc3ccc(CCNC(=N)N)cc3)c(COc3ccc(CCNC(=N)N)cc3)c2COc2ccc(CCNC(=N)N)cc2)cc1.O=C(O)C(F)(F)F | 16 µg/mL | 16 µg/mL | 8 µg/mL | 8 µg/mL | 8 µg/mL | 26 µg/mL | 30 µg/mL | 1.5 | 1.5 | 3 | 3 | 3
N=C(N)NCCc1ccc(OCc2cc(COc3ccc(CCNC(=N)N)cc3)c(COc3ccc(CCNC(=N)N)cc3)cc2COc2ccc(CCNC(=N)N)cc2)cc1.O=C(O)C(F)(F)F | 4 µg/mL | 8 µg/mL | 2 µg/mL | < 1 µg/mL | 4 µg/mL | 49 µg/mL | 38.5 µg/mL | 12 | 6 | 24.5 | > 49 | 12.2
N=C(N)NCCc1ccc(OCc2cc(COc3ccc(CCNC(=N)N)cc3)cc(COc3ccc(CCNC(=N)N)cc3)c2)cc1.O=C(O)C(F)(F)F | < 1 µg/mL | 16 µg/mL | < 1 µg/mL | < 1 µg/mL | 8 µg/mL | 39.5 µg/mL | 30 µg/mL | > 39.5 | 2.5 | > 39.5 | > 39.5 | 5
N=C(N)NCCc1ccc(OCc2ccccc2)cc1.O=C(O)C(F)(F)F | 32 µg/mL | 64 µg/mL | 16 µg/mL | 8 µg/mL | 128 µg/mL | 26 µg/mL | 19 µg/mL | 0.8 | 0.4 | 1.5 | 3 | 0.2
N=C(N)NCCc1ccc(OCc2ccc(COc3ccc(CCNC(=N)N)cc3)cc2)cc1.O=C(O)C(F)(F)F | 4 µg/mL | 4 µg/mL | 1 µg/mL | 1 µg/mL | 2 µg/mL | 21 µg/mL | 12.7 µg/mL | 5.25 | 5.25 | 21 | 21 | 10.5
